Test results published in patent US6514979B1, “Synergistic combinations of guanosine analog reverse transcriptase inhibitors and inosine monophosphate dehydrogenese inhibitors and uses therefor” (University of Maryland Biotechnology Institute, priority 1999, dated 2003).
Structures can show the parent of a compound that is named as a salt. Where two headings read alike, the source gives them in different places.

Columns and labels:
HIV-1 [1] = test: combined effects of MA and available nucleoside analogs (Table 2); format: cell-based
From the text: Although MA directly depletes cellular guanosine pools through inhibition of IMPDH, this may result secondarily in perturbations of other cellular enzyme activities. Such perturbations could result in beneficial or detrimental therapeutic effects. The combined effects of MA and available nucleoside analogs are described in Table 2: […]

[2] = target: inosine monophosphate dehydrogenase (IMPDH); conditions: literature values; read-out: Ki for IMPDH inhibition; cited from earlier work
Type II isoform of IMPDH = Type II isoform of IMPDH (Homo sapiens, UniProt P12268); conditions: stimulated lymphocytes isoform; cited from earlier work
HIV-1 IIIb = test: p24 production by HIV-1 IIIb infected PHA-stimulated PBMCs, Greco interaction model; format: cell-based; conditions: HIV IIIb in PBMCs; for IC50: p24 day 7, Greco model estimate
Experimental: (§1) Primary PBMCs were separated from whole blood of HIV seronegative donors by density centrifugation over Ficoll-Hypaque (Sigma). The culture medium consisted of RPMI supplemented with 10% fetal bovine serum (FBS), 2 mM glutamine and penicillin/streptomycin (Gibco, Grand Island, N.Y.). For infection studies involving PBMCs, cells were stimulated with 10 μg/mL phytohemagglutinin (PHA; Boehringer Mannheim, Indianapolis, Ind.) and cultured for 3 days. Stimulated PBMCs were infected by incubation with virus at a multiplicity of infection of 1000 TCID50/d10^6 PBMC for 2 hours. PBMC were then washed three times with PBS and cultured in 5% CO2 at 37° C, in RPMI/10% FBS supplemented with 10 units/mL IL-2 (Boehringer Mannheim) and drugs as appropriate. PBMC were seeded in 96-well flat-bottom plates at a density of 2×10^5 PBMC/200 μL. Following three days of culture, half of the medium was replaced with fresh medium containing IL-2 and drugs. After 7 days of culture HIV-1 p24 production in the culture supernatant was assayed by ELISA (Coulter, Hialeah, Fla.).
Additive antiviral effect was analyzed according to the definition of Loewe, using the interaction model of Greco et al. as was described above. This model is fully parametric, and point estimates of the model parameters are obtained in a traditional weighted, nonlinear least-squares approach. The model follows the equation below: [formula]
where α (alpha) is the synergism-antagonism interaction parameter, IC50.1 and IC50.2 are the drug concentrations resulting in 50% inhibition for drug 1 and drug 2, respectively; D1 and D2 are the concentration of drugs tested; Econ is the control effect in the absence of either drug, E is the observed effect , and m 1 and m 2 are the slope parameters for each drug. If the estimate of α is zero, the drug combination is additive; if α is positive, the interaction is synergistic; if α is negative, the interaction is antagonistic. […] That is, if the 95% confidence interval encompasses zero, the interaction is additive. […] This model was implemented using the ADAPT II programs (D'Argenio D. Z, Schumitzky A. ADAPT II: a program package for simulation identification and optimal experimental design. 1990. Biomedical Simulations Resource, Univ. Of Southern California, Los Angeles). Each drug combination was tested in triplicate so as to obtain an estimate of the variance of the effect at different drug concentration combinations.
The combined effect of abacavir and MA was examined in PBMC culture systems. PBMCs from a seronegative donor were stimulated with PHA and infected with the T-cell tropic isolate HIV-1 IIIb. At the clinically utilized dose (600 mg/day) of abacavir steady state peak serum levels are […] (4.47 μM; e.g.,see Ziagen package insert. Glaxo Wellcome, Inc., Research Triangle Park, N.C.). After a single 1000 mg dose of MA in a healthy individual, the mean peak serum level is 56.5 μM. Therefore, infected cells were cultured in the presence of abacavir from 0 to 4 μM, and in the presence of 0 to 1 μM of MA. On day 7 after infection the number of viable cells was determined by MTT assay (Boehringer Mannheim), and p24 antigen in the culture supernatant was measured.
The interaction of abacavir and MA in the suppression of HIV IIIb replication in PBMCs was analyzed using the Greco model as described above. Each data point was determined in triplicate. Each observation was weighted by the inverse of the observation variance. These parameters and their 95% confidence bounds are shown below: […]

cellular guanosine pools = test: addition of deoxynucleosides to the culture media; format: cell-based; conditions: not shown
From the text: MA may synergize with abacavir via depletion of cellular guanosine pools, effectively increasing the intracellular concentration of abacavir. However, MA may also act via a general inhibitory effect on T lymphocyte proliferation, as has been hypothesized in the case of hydroxyurea (Lori F., Malykh A. G., Foli A., Maserati R., De Antoni A., Minoli L., Padrini D., Degli Antoni A., Barchi E., Jessen H., Wainberg M. A., Gallo R. C., Lisziewicz J. Combination of a drug targeting the cell with a drug targeting the virus controls human immunodeficiency virus type 1 resistance. AIDS Res Hum Retroviruses 1997; 13(16): 1403-9; De Boer R. J., Boucher C. A., Perelson A. S. Target cell availability and the successful suppression of HIV by hydroxyurea and didanosine. AIDS 1998; 12(13): 1567-70).

HIV-1 [3] = conditions: 1-10 μM; cited from earlier work
neutrophil function = conditions: concentrations of up to 10 μM; cited from earlier work
IL-2 receptor signaling = conditions: high concentrations; cited from earlier work
[4] = single 1000 mg dose in a healthy individual; cited from earlier work
PBMC = test: MTT cell proliferation assay of PBMC cultures; conditions: 0.5 μM MA
Experimental: Cellular proliferation in culture in the presence or absence of MA and abacavir was measured using a commercial MMT cell proliferation assay, as per the manufacturer's instructions (Boehringer Mannheim).

[5] = test system: HIV reverse transcriptase M184V; conditions: cited from earlier work
Wild-type HIV = test: replication of wild-type HIV-1 in PBMCs, day 7 p24; format: cell-based; conditions: Human immunodeficiency virus 1, PBMC; 4 μM abacavir
Experimental: as §1

[6] = test system: resistant HIV encoding M184V; test: replication of M184V mutant HIV-1 in PBMCs, day 7 p24; format: cell-based; conditions: Human immunodeficiency virus 1, PBMC, read-out: inhibition of resistant HIV encoding M184V
Experimental: as §1

HIV-1 [7] = conditions: monotherapy; cited from earlier work

Question: With Nc1ccn([C@H]2CC[C@@H](CO)O2)c(=O)n1 [zalcitibine, 2′,3′-dideoxycytidine] as the compound, how does the “antiviral effect of nucleoside analog alone” value (HIV-1 [1]; concentration not given) read?
Answer: The value was 3.9.

Question: With COc1c(C)c2c(c(O)c1C/C=C(\C)CCC(=O)O)C(=O)OC2 [Mycophenolic acid] as the compound, how does the Ki [2] read?
Answer: Its Ki is 2 to 10 nM.

Question: And the “sensitivity of Type II isoform versus the isoform predominant in other cell lineages” value (Type II isoform of IMPDH)?
Answer: The value was “four times more sensitive”.

Question: Which “m MA (slope parameter)” value (HIV-1 IIIb; Greco model estimate) does the source give for COc1c(C)c2c(c(O)c1C/C=C(\C)CCC(=O)OCCN1CCOCC1)C(=O)OC2 [MA, 2-morpholinoethyl ester of mycophenolic acid] here?
Answer: Its value is 1.90.

Question: And the IC50 (HIV-1 IIIb; read-out: IC50 MA)?
Answer: The IC50 was 110 nM.

Question: What about the IC50 (HIV-1 IIIb; Human immunodeficiency virus 1, IIIB, PBMC, 168 h, read-out: IC50 MA) of the same compound?
Answer: Its IC50 is 100 nM.

Question: And the “antiviral effect of MA alone” value (HIV-1 [1]; 0.125 μM MA)?
Answer: The value was 1.3.

Question: And the “antiviral effect of MA alone” value (HIV-1 [1]; 0.5 μM MA)?
Answer: Its value is 9.3.

Question: And the “inhibitory effect of MA after addition of deoxyadenosine” value (cellular guanosine pools)?
Answer: The value was “no effect”.

Question: What about the “inhibitory effect of MA after addition of deoxyguanosine” value (cellular guanosine pools) of the same compound?
Answer: Its value is “ablated the inhibitory effect”.

Question: And the “effect on replication of HIV-1 in vitro” value (HIV-1 [3])?
Answer: Its value is “inhibit ed the replication”.

Question: What about the “effect on neutrophil function” value (neutrophil function) of the same compound?
Answer: Its value is “do not inhibit neutrophil function”.

Question: And the “effect on IL-2 receptor signaling” value (IL-2 receptor signaling)?
Answer: The value was “do not disrupt IL-2 receptor signaling”.

Question: What about the “mean peak serum level” value [4] of the same compound?
Answer: Its value is 56.5 µM.

Question: What about the antiproliferative effect (PBMC) of the same compound?
Answer: Its antiproliferative effect is “modest antiproliferative effect”.

Question: Which “antiviral effect of nucleoside analog alone” value (HIV-1 [1]; concentration not given) does the source give for OC[C@@H]1CC[C@H](n2cnc3c(O)ncnc32)O1 [didanosine, 2′,3′-dideoxyinosine] here?
Answer: The value was 11.

Question: With Nc1ccn([C@@H]2CS[C@H](CO)O2)c(=O)n1 (relative stereo) [3TC, (2R,cis)4-amino-1-(2-hydroxymethyl-1,3-oxathiolan-5-yl)-(1H)-pyrimidin-2-one] as the compound, how does the “resistance conferred by M184V” value [5] read?
Answer: The value was “high level resistance”.

Question: Which results are given for Nc1nc(NC2CC2)c2ncn([C@H]3C=C[C@@H](CO)C3)c2n1 [abacavir, (1S,cis)-4-[2-amino-6-(cyclopropylamino)-9H-purin-9-yl]-2-cyclopentene-1-methanol sulfate]?
Answer: m abacavir (slope parameter) (HIV-1 IIIb; Greco model estimate): 0.70; IC50 (HIV-1 IIIb; read-out: IC50 abacavir): 630 nM; IC50 (HIV-1 IIIb; Human immunodeficiency virus 1, IIIB, PBMC, 168 h, read-out: IC50 abacavir): 626 nM; inhibition at 4 µM (Wild-type HIV): 98%; inhibition at 4 µM [6]: 53%; antiviral effect of nucleoside analog alone (HIV-1 [1]; 2 μM): 2.7; drop in plasma HIV-1 RNA (HIV-1 [7]): 1.55 log

Question: For Cc1cn([C@H]2C[C@H](N=[N+]=[N-])[C@@H](CO)O2)c(=O)[nH]c1=O [zidovudine, 3′-azido-3′-deoxythymidine], which “antiviral effect of nucleoside analog alone” value (HIV-1 [1]; concentration not given) is on record?
Answer: Its value is 84.

Question: Which “antiviral effect of nucleoside analog alone” value (HIV-1 [1]; 2 μM) does the source give for Cc1cn([C@H]2C=C[C@@H](CO)O2)c(=O)[nH]c1=O [stavudine, 2′,3′-dihydro-3′-deoxythymidine] here?
Answer: Its value is 115.
